According to ChEMBL document CHEMBL1255559, “Novel macrocyclic HCV NS3 protease inhibitors derived from α-amino cyclic boronates” (Bioorg Med Chem Lett, 2010):

Tests used:
[1] = Inhibition of HCV 1a NS3/4A protease by FRET assay; parameters: species or system Hepatitis C virus subtype 1a
Hepatitis C virus [2] = assay: Antiviral activity against HCV 1a infected in human hepatoma cells by replicon assay; format: functional, organism-based, Hepacivirus hominis; conditions: subtype 1a
Hepatitis C virus [3] = assay: Antiviral activity against HCV 1b infected in human hepatoma cells by replicon assay; format: functional, organism-based, Hepacivirus hominis; conditions: genotype 1b

Structure (SMILES) | IC50 [1] [nM] | EC50 (Hepatitis C virus [2]) [nM] | EC50 (Hepatitis C virus [3]) [nM]
CC1(C)CCCCc2cccc3c2CN(C3)C(=O)O[C@@H]2C[C@@H](C(=O)N[C@@H]3CCCCOB3O)N(C2)C(=O)[C@H](C(C)(C)C)NC(=O)OC1 | 300 | 3700 | 3900
C[C@@H]1COB[C@@H]1NC(=O)[C@@H]1C[C@@H]2CN1C(=O)[C@H](C(C)(C)C)NC(=O)OCC(C)(C)CCCCc1cccc3c1CN(C3)C(=O)O2 | 25000 | 33000 | 30000
C[C@H]1COB[C@H]1NC(=O)[C@@H]1C[C@@H]2CN1C(=O)[C@H](C(C)(C)C)NC(=O)OCC(C)(C)CCCCc1cccc3c1CN(C3)C(=O)O2 | 130 | 1900 | 1700
CC1(C)CCCCc2cccc3c2CN(C3)C(=O)O[C@@H]2C[C@@H](C(=O)N[C@H]3CCCOB3O)N(C2)C(=O)[C@H](C(C)(C)C)NC(=O)OC1 | 62 | 1300 | 2800
CC1(C)CCCCc2cccc3c2CN(C3)C(=O)O[C@@H]2C[C@@H](C(=O)N[C@H]3BOCC3)N(C2)C(=O)[C@H](C(C)(C)C)NC(=O)OC1 | 1400 | 11000 | > 50000
CC1(C)CCCCc2cccc3c2CN(C3)C(=O)O[C@@H]2C[C@@H](C(=O)N[C@@H]3CCCOB3O)N(C2)C(=O)[C@H](C(C)(C)C)NC(=O)OC1 | 1300 | 12000 | > 25000
CC(C)(C)[C@H](NC(=O)OC1CCCC1)C(=O)N1C[C@H](OC(=O)N2Cc3cccc(F)c3C2)C[C@H]1C(=O)N[C@@H]1BOCC1 |  | 8700 | > 10000

The next compounds have a lower EC50 (Hepatitis C virus [2]) than those just listed; values first:

IC50 [1] [nM] | EC50 (Hepatitis C virus [2]) [nM] | EC50 (Hepatitis C virus [3]) [nM] | Structure (SMILES)
43 | 780 | 354 | CC1(C)CCCCc2cccc3c2CN(C3)C(=O)O[C@@H]2C[C@@H](C(=O)N[C@@H]3BOCC3)N(C2)C(=O)[C@H](C(C)(C)C)NC(=O)OC1
47 | 380 | 200 | CC1(C)CCCCc2cccc3c2CN(C3)C(=O)O[C@@H]2C[C@@H](C(=O)N[C@H]3CCCCOB3O)N(C2)C(=O)[C@H](C(C)(C)C)NC(=O)OC1
110 | 980 | 4200 | CC1(C)CCCCc2cccc3c2CN(C3)C(=O)O[C@@H]2C[C@@H](C(=O)N[C@@H]3BOC[C@@H]3C3CC3)N(C2)C(=O)[C@H](C(C)(C)C)NC(=O)OC1
 | ≤ 1 | ≤ 1 | CC[C@@H]1C[C@]1(NC(=O)[C@@H]1C[C@@H]2CN1C(=O)[C@H](C(C)(C)C)NC(=O)OCC(C)(C)CCCCc1cccc3c1CN(C3)C(=O)O2)C(=O)NS(=O)(=O)C1CC1
